ChEMBL document CHEMBL1649169, “Multiresistance in Pasteurella multocida is mediated by coexistence of small plasmids” (2009)
Values after ≈ are worked out from the molar mass of the structure shown.

Columns and labels:
Assay type in all cases: functional
Pasteurella multocida [1] = test: Antibacterial activity against Pasteurella multocida BB1039 harboring plasmid pB1000 bearing blaROB-1 gene and plasmid pB9956 bearing tetH gene by CLSI M31-A3 broth microdilution method
Pasteurella multocida [2] = test: Antibacterial activity against Pasteurella multocida BB1042 harboring plasmid pB1000 bearing blaROB-1 gene and plasmid pB9956 bearing tetH gene by CLSI M31-A3 broth microdilution method
Pasteurella multocida [3] = test: Antibacterial activity against Pasteurella multocida BB1046 harboring plasmid pB1003 bearing blaROB-1 gene and plasmid pB1002 bearing strA, sul2 genes by CLSI M31-A3 broth microdilution method
Pasteurella multocida [4] = test: Antibacterial activity against Pasteurella multocida BB1044 harboring plasmid pB1000 bearing blaROB-1 gene, plasmid 1006 bearing tetO gene and plasmid pB1005 bearing strA, sul2 genes by CLSI M31-A3 broth microdilution method
Pasteurella multocida [5] = test: Antibacterial activity against Pasteurella multocida BB1037 harboring plasmid pB1000 bearing blaROB-1 gene and plasmid pB1005 bearing strA, sul2 genes by CLSI M31-A3 broth microdilution method
Pasteurella multocida [6] = test: Antibacterial activity against Pasteurella multocida BB1034 harboring plasmid pB1000 bearing blaROB-1 gene and plasmid pB1001 bearing tetB gene by CLSI M31-A3 broth microdilution method
Pasteurella multocida [7] = test: Antibacterial activity against Pasteurella multocida BB1043 harboring plasmid pB1000 bearing blaROB-1 gene and plasmid pB9956 bearing tetH gene by CLSI M31-A3 broth microdilution method
Pasteurella multocida [8] = test: Antibacterial activity against Pasteurella multocida BB1035 harboring plasmid pB1000 bearing blaROB-1 gene and plasmid pB1005 bearing strA, sul2 genes by CLSI M31-A3 broth microdilution method
Pasteurella multocida [9] = test: Antibacterial activity against Pasteurella multocida BB1041 harboring plasmid pB1000 bearing blaROB-1 gene and plasmid pB9956 bearing tetH gene by CLSI M31-A3 broth microdilution method
Pasteurella multocida [10] = test: Antibacterial activity against Pasteurella multocida BB1045 harboring plasmid pB1000 bearing blaROB-1 gene and plasmid pB9956 bearing tetH gene by CLSI M31-A3 broth microdilution method
Pasteurella multocida [11] = test: Antibacterial activity against Pasteurella multocida BB1040 harboring plasmid pB1000 bearing blaROB-1 gene and plasmid pB9956 bearing tetH gene by CLSI M31-A3 broth microdilution method
Pasteurella multocida [12] = test: Antibacterial activity against Pasteurella multocida ATCC 43137 by CLSI M31-A3 broth microdilution method
Pasteurella multocida [13] = test: Antibacterial activity against Pasteurella multocida BB1038 harboring plasmid pB1000 bearing blaROB-1 gene and plasmid pB1005 bearing strA, sul2 genes by CLSI M31-A3 broth microdilution method
Pasteurella multocida [14] = test: Antibacterial activity against Pasteurella multocida BB1036 harboring plasmid pB1000 bearing blaROB-1 gene and plasmid pB1005 bearing strA, sul2 genes by CLSI M31-A3 broth microdilution method

Compound | MIC (Pasteurella multocida [1]) [µg/mL] | MIC (Pasteurella multocida [2]) [µg/mL] | MIC (Pasteurella multocida [3]) [µg/mL] | MIC (Pasteurella multocida [4]) [µg/mL] | MIC (Pasteurella multocida [5]) [µg/mL] | MIC (Pasteurella multocida [6]) [µg/mL] | MIC (Pasteurella multocida [7]) [µg/mL] | MIC (Pasteurella multocida [8]) [µg/mL] | MIC (Pasteurella multocida [9]) [µg/mL] | MIC (Pasteurella multocida [10]) [µg/mL] | MIC (Pasteurella multocida [11]) [µg/mL] | MIC (Pasteurella multocida [12]) [µg/mL] | MIC (Pasteurella multocida [13]) [µg/mL] | MIC (Pasteurella multocida [14]) [µg/mL]
CC1(C)S[C@@H]2[C@H](NC(=O)[C@H](N)c3ccc(O)cc3)C(=O)N2[C@H]1C(=O)O [AMOXICILLIN] | > 256 | > 256 | > 256 | > 256 | > 256 | > 256 | > 256 | > 256 | > 256 | > 256 | > 256 | ≤ 1 | > 256 | > 256
N[C@@H](C(=O)N[C@@H]1C(=O)N2C(C(=O)O)=C(Cl)CS[C@H]12)c1ccccc1 [CEFACLOR ANHYDROUS] | > 16 | > 16 | > 16 | > 16 | > 16 | > 16 | > 16 | > 16 | > 16 | > 16 | > 16 | ≤ 1 | > 16 | > 16
CO/N=C(\C(=O)N[C@@H]1C(=O)N2C(C(=O)O)=C(COC(C)=O)CS[C@H]12)c1csc(N)n1 [CEFOTAXIME] | 1 (≈ 2.2 µM) | 1 (≈ 2.2 µM) | 0.5 (≈ 1.1 µM) | 1 (≈ 2.2 µM) | 1 (≈ 2.2 µM) | 1 (≈ 2.2 µM) | 1 (≈ 2.2 µM) | 0.5 (≈ 1.1 µM) | 1 (≈ 2.2 µM) | 1 (≈ 2.2 µM) | 1 (≈ 2.2 µM) | ≤ 0.06 | 1 (≈ 2.2 µM) | 1 (≈ 2.2 µM)
CC1(C)S[C@@H]2[C@H](NC(=O)Cc3ccccc3)C(=O)N2[C@H]1C(=O)O [PENICILLIN G] | > 16 | > 16 | > 16 | > 16 | > 16 | > 16 | > 16 | > 16 | > 16 | > 16 | > 16 | ≤ 0.03 | > 16 | > 16
CN[C@@H]1[C@H](O[C@H]2[C@H](O[C@H]3[C@H](O)[C@@H](O)[C@H](N=C(N)N)[C@@H](O)[C@@H]3N=C(N)N)O[C@@H](C)[C@]2(O)C=O)O[C@@H](CO)[C@H](O)[C@H]1O [STREPTOMYCIN] | 8 (≈ 13.8 µM) | 8 (≈ 13.8 µM) | > 256 | > 256 | > 256 | 32 (≈ 55 µM) | 8 (≈ 13.8 µM) | > 256 | 16 (≈ 27.5 µM) | 16 (≈ 27.5 µM) | 16 (≈ 27.5 µM) | 8 (≈ 13.8 µM) | > 256 | > 256
Cc1cc(NS(=O)(=O)c2ccc(N)cc2)no1 [SULFAMETHOXAZOLE] | > 256 | > 256 | > 256 | > 256 | > 256 | > 256 | > 256 | > 256 | > 256 | > 256 | > 256 | > 256 | > 256 | > 256
CN(C)[C@@H]1C(O)=C(C(N)=O)C(=O)[C@@]2(O)C(O)=C3C(=O)c4c(O)cccc4[C@@](C)(O)[C@H]3C[C@@H]12 [TETRACYCLINE] | 32 (≈ 72 µM) | 32 (≈ 72 µM) | 1 (≈ 2.25 µM) | 32 (≈ 72 µM) | 2 (≈ 4.5 µM) | 16 (≈ 36 µM) | 32 (≈ 72 µM) | 2 (≈ 4.5 µM) | 32 (≈ 72 µM) | 32 (≈ 72 µM) | 32 (≈ 72 µM) | 2 (≈ 4.5 µM) | 2 (≈ 4.5 µM) | 2 (≈ 4.5 µM)
